Assay results as given in patent publication US20170224819A1, “Therapeutic Combinations of a BTK Inhibitor, a PI3K Inhibitor, a JAK-2 Inhibitor, and/or a CDK 4/6 Inhibitor” (Acerta Pharma B.V., priority 2014, published 2017).

How the values were obtained:
[1] = tested on: chronic lymphocytic leukemia (CLL); experiment: Clinical study of Formula (XVIII) in relapsed/refractory CLL
KPC pancreatic cancer = KPC pancreatic cancer model; assay type: in vivo
BTK [2] = target: T1, BTK (Mus musculus, UniProt P35991); experiment: Molecular probe assay of irreversible BTK occupancy in MDSCs of tumor bearing PDA mice; assay type: in vivo; settings: 15 mg/kg BID, Day 8, 4 hours post dose (N=5)
T1 construct: MDSCs were purified from tumor bearing PDA mice; endogenous in cells; host or cells: granulocytic and monocytic MDSCs from tumour-bearing PDA mice
T1 sequence (P35991 whole entry): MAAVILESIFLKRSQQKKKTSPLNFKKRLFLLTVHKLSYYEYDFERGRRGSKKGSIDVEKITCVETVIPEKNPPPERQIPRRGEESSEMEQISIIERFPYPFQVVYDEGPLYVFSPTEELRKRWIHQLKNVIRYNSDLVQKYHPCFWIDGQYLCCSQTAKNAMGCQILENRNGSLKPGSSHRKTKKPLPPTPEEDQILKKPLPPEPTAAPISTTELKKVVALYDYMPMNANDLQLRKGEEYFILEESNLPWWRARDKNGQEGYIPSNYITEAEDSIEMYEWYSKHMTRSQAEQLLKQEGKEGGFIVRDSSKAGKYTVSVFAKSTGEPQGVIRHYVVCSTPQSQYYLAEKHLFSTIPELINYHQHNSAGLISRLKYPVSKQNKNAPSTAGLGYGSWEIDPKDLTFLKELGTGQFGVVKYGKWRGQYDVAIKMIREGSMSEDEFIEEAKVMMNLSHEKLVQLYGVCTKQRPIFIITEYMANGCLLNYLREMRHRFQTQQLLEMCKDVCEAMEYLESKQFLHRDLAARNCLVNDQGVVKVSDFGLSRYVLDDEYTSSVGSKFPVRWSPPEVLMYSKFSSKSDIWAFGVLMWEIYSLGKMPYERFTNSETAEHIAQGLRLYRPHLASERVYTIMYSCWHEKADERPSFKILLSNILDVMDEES
Text: A molecular probe assay was used to calculate the percent irreversible occupancy of total BTK.

[3] = tested on: NSCLC (KrasLA2) lung tumors; experiment: Genetic tumor model of NSCLC (KrasLA2); assay type: in vivo, mice; settings: 15 mg/kg
Text: The model is designed to have sporadic expression in single cells of G12D mutant Kras off its own promoter triggered by spontaneous intrachromosomal recombination. Johnson, et al. Nature 2001, 410, 1111-16. While the mutant Kras protein is expressed in a few cells in all tissues, tumor development is seen only in the lung at high penetrance.

BCR = experiment: In vivo potency: expression of activation markers CD69 and CD86 after BCR stimulation with IgM; settings: compared with ibrutinib; mice gavaged, sacrificed 3 h post-dose; flow cytometry; FIG. 137
Description: Mice were gavaged at increasing drug concentration and sacrificed at one time point (3 h post-dose). BCR is stimulated with IgM and the expression of activation markers CD69 and CD86 are monitored by flow cytometry to determine EC50's.

[4] = Glutathione binding and depletion in vitro; assay type: in vitro ADME
ID8 ovarian cancer = experiment: ID8 syngeneic orthotropic ovarian cancer model; assay type: in vivo, mice
Text: FIG. 108 illustrates the effects of vehicle on flux at two timepoints, as a control for comparison with FIG. 109, in the ID8 syngeneic orthotropic ovarian cancer model.

[5] = tested on: orthotopic pancreatic cancer (KPC derived cells); experiment: Orthotopic pancreatic cancer model (KPC cell line implanted in C57BL/6 mice); assay type: in vivo; settings: orthotopic PDA model, oral 15 mg/kg
Description: Cell line derived from KrasG12D; Trp53R172H; Pdxl-Cre (KPC) mice were orthotopically implantated into the head of the pancreas after 35 passages. Based on the mice background from where the cell lines were generated, 1×10^6 cells were injected in C57BL/6 mice. Throughout the experiment, animals were provided with food and water ad libitum and subjected to a 12-h dark/light cycle. Animal studies were performed in accordance with the U.S. Public Health Service “Guidelines for the Care and Use of Laboratory Animals” (IACUC). After euthanization, pancreatic tumors were dissected out, weighed and single cell suspensions were prepared for flow cytometry analysis.

[6] = Brain PK experiments (brain and CSF versus plasma); assay type: in vivo, Sprague-Dawley rats; settings: rats, 5 or 30 mg/kg/day
Description: Two vehicle treated rats were sacrificed on each sampling day for comparison.

Txk = Txk (Homo sapiens, UniProt P42681); experiment: biochemical
Txk, sequence (P42681 whole entry): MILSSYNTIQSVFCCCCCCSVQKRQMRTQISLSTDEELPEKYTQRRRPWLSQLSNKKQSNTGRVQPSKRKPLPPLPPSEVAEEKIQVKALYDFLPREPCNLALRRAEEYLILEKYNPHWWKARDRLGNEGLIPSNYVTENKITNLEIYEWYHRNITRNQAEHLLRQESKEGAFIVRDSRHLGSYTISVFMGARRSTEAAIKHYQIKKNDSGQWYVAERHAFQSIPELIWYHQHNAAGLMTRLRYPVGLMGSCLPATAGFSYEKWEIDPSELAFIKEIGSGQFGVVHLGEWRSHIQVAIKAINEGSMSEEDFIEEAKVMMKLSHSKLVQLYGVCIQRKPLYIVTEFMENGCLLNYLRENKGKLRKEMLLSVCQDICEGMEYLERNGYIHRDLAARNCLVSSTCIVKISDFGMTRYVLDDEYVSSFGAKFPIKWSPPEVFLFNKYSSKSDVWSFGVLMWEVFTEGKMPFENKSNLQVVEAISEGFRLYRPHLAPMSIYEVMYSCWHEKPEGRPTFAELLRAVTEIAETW

NK cells [7] = experiment: NK cell degranulation (CD107a externalization, flow cytometry); assay type: cell-based, human; settings: 1 μM, HER18 target cells
Description: Lytic granule release was determined as follows. NK cells from healthy donors were enriched and cultured in the presence of target cells, monoclonal antibodies and test articles as described above. After 4 hours, the cultures were harvested and cells were pelleted, washed, and then stained for flow cytometry evaluation. Degranulation was evaluated via by flow cytometery by externalization of CD107a, a protein normally present on the inner leaflet of lytic granules, and gating on NK cells (CD3-CD16^+ lymphocytes). The percentage of CD107a positive NK cells was quantified by comparison with a negative control (isotype control, unstained cells/FMO). Control cultures (NK cells cultured without target cells, or NK, target cell co-cultures in the absence of appropriate monoclonal antibody) were also evaluated; all experiments were performed in triplicate.

[8] = In vitro metabolism in hepatocytes with 14C-labeled compound; assay type: in vitro ADME, mouse, rat, dog, rabbit, monkey, and human
NK cells [9] = experiment: Antibody-dependent NK cell cytokine (IFN-γ) secretion, ELISA; assay type: cell-based, human; settings: 1 μM, HER18 target cells
Description: Cytokine secretion was determined as follows. […] NK cells from healthy donors were enriched as described above and then added to the target cells and incubated for 4 hours at 37° C. Triplicate cultures were performed on NK cells from donors. After incubation, supernatants were harvested, centrifuged briefly, and then analyzed for interferon-γ using an enzyme-linked immunosorbent assay (ELISA) (R&D Systems, Minneapolis, Minn., USA).

CYP3A4 = CYP3A4 (Homo sapiens, UniProt P08684); experiment: In vitro CYP metabolism and CYP interaction studies; assay type: in vitro ADME
CYP3A4, sequence (P08684 whole entry): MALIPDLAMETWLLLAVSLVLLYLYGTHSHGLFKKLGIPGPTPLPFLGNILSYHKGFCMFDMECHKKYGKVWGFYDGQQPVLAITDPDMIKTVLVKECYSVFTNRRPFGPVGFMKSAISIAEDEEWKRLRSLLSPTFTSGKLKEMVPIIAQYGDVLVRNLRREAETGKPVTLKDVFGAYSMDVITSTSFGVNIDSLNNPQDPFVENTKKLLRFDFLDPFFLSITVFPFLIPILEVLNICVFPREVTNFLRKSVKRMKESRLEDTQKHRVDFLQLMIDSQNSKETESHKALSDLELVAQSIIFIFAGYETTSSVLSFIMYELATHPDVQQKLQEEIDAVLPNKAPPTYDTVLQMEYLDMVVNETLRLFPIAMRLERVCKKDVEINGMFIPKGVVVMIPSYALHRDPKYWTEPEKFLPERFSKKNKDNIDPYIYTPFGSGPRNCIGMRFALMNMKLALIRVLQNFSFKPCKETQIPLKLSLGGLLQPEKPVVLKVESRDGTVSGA

canine B cell lymphoma = experiment: Veterinary clinical trial in companion dogs with lymphoma; assay type: in vivo
Description: Enrollment has completed for Arm 1 and is ongoing for Arm 2.
Intra-subject dose escalation was allowed. Six of the 11 dogs that initiated at 2.5 or 5 mg/kg once daily were escalated and completed the study with dosages of 10 mg/kg twice daily. Among all the dose cohorts, 8 dogs had shrinkage of target lesions >20%; the best tumor responses were between 45-49% reduction in the sum of target lesions in two dogs.

[10] = tested on: GPVI platelet aggregation; experiment: GPVI platelet aggregation studies; assay type: cell-based; settings: read-out: IC50, GPVI platelet aggregation
BTK [11] = target: BTK (Homo sapiens, UniProt Q06187); experiment: BTK target occupancy in relapsed/refractory CLL patients; settings: at lower dosage versus ibrutinib, FIG. 144
BTK (Homo sapiens, UniProt Q06187), sequence (Q06187 whole entry): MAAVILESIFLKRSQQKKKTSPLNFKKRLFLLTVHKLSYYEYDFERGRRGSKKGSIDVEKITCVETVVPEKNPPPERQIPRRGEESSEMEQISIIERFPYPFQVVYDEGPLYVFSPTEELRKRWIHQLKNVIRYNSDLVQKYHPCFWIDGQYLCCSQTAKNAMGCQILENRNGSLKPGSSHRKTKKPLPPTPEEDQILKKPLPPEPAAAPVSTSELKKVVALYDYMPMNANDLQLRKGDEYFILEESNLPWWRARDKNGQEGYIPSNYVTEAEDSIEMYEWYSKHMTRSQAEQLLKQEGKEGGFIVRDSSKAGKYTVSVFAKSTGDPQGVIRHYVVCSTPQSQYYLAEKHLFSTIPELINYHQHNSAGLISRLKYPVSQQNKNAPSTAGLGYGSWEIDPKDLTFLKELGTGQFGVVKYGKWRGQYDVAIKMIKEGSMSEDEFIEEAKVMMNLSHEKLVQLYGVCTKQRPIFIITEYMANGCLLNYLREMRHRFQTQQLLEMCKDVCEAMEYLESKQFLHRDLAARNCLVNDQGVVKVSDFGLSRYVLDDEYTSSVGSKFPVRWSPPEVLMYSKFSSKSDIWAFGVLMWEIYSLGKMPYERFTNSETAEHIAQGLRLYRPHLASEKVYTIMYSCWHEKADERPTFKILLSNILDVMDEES

[12] = tested on: KPC derived mouse pancreatic cancer cells; experiment: KPC derived pancreatic cancer cells injected into the pancreas, Formula (XVIII) and/or gemcitabine; assay type: in vivo; settings: 15 mg/kg/BID orally
Description: In this study, KPC derived mouse pancreatic cancer cells (KrasG12D; Trp53R172H; Pdxl-Cre) were injected into the pancreases.
Single cell suspensions from tumor samples. Mouse tumor tissue was collected and stored in PBS/0.1% soybean trypsin inhibitor prior to enzymatic dissociation. Samples were finely minced with a scissors and mouse tissue was transferred into DMEM containing 1.0 mg/ml collagenase IV (Gibco), 0.1% soybean trypsin inhibitor, and 50 U/ml DNase (Roche) and incubated at 37° C. for 30 minutes with constant stirring while human tissue was digested in 2.0 mg/ml collagenase IV, 1.0 mg/ml hyluronidase, 0.1% soybean trypsin inhibitor, and 50 U/ml DNase for 45 minutes. Suspensions were filtered through a 100 micron filter and washed with FACS buffer (PBS/0.5% BSA/2.0 mM EDTA) prior to staining. Two million total cells were stained with antibodies as indicated. Intracellular detection of FoxP3 was achieved following permeabilization with BD Perm Buffer III (BD Biosciences) and eBioscience Fix/Perm respectively. Following surface staining, samples were acquired on a BD Fortessa and analyzed using FlowJo (Treestar) software.

## CC#CC(=O)N1CCC[C@H]1c1nc(-c2ccc(C(=O)Nc3ccccn3)cc2)c2c(N)nccn12 [Formula (XVIII), (S)-4-(8-amino-3-(1-(but-2-ynoyl)pyrrolidin-2-yl)imidazo[1,5-a]pyrazin-1-yl)-N-(pyridin-2-yl)benzamide]
[1]; 100 mg QD (N = 8)
  PD (progressive disease): 0 (0) n (%)
[1]; 175 mg QD (N = 8)
  PD (progressive disease): 0 (0) n (%)
[1]; 250 mg QD (N = 7)
  PD (progressive disease): 0 (0) n (%)
[1]; All Cohorts (N = 31)
  PD (progressive disease): 0 (0) n (%)
  PR (partial response): 22 (71) n (%)
  PR + L (partial response with lymphocytosis): 7 (23) n (%)
[1]; CLL patients, present study
  Time of treatment at which the median % change in SPD achieved the same status: 7 months
[1]; CLL patients, Log-Rank p-value 0.0206
  PFS (Kaplan-Meier) in comparison to ibrutinib: An improvement in survival and a reduction in risk
[1]; Grade 1/2, All (N = 44)
  Treatment-related adverse event: Headache: 7 (16) n (%)
[1]; Grade 1, All (N = 44)
  Treatment-related adverse event: Diarrhea: 4 (9) n (%)
[1]; human, in vivo
  Dose-limiting toxicities (DLTs): No DLTs were observed
  Grade of adverse events: only grade 1 AEs were observed
  Lymphocytosis: A lack of lymphocytosis was observed
  Treatment-related adverse event: Increased tendency to bruise: 6 (14) n (%)
  Treatment-related adverse event: Petechiae: 3 (7) n (%)
  Treatment-related serious adverse events (SAEs): No treatment-related serious adverse events (SAEs) were observed
[1]; to date
  Progression in patients with the 17p deletion: no 17p patients have progressed
KPC pancreatic cancer; FIG. 128
  immunosuppressive TAMs (CD11b+Ly6ClowF4/80+Csf1r+) in tumor tissues: significantly reduced
KPC pancreatic cancer; FIG. 129
  immunosuppressive MDSCs (Gr1+Ly6CHi) in tumor tissues: significantly reduced
KPC pancreatic cancer; FIG. 130
  immunosuppressive Tregs (CD4+CD25+FoxP3+) in tumor tissues: significantly reduced
BTK [2]
  Irreversible BTK occupancy in granulocytic and monocytic MDSCs: Complete BTK occupancy
[3]
  Number of tumors: fewer overall tumors
  Tumor volumes: significant decrease in tumor volumes versus vehicle
BCR
  potency at inhibiting expression of activation markers CD69 and CD86: more potent
[4]
  Glutathione binding and depletion: binds to glutathione but does not deplete glutathione in vitro
ID8 ovarian cancer; FIG. 114
  immunosuppressive tumor associated Tregs: significant reduction
ID8 ovarian cancer; FIG. 115
  CD8+ T cells: increase
ID8 ovarian cancer; syngeneic murine model, in comparison to vehicle, FIG. 111
  ID8 ovarian cancer growth: impairs
ID8 ovarian cancer; tumor-bearing mice, in comparison to vehicle, FIG. 110
  immunosuppressive tumor associated lymphocytes: significant reduction
ID8 ovarian cancer; tumor-bearing mice, FIG. 112
  total B cells: significant reduction
ID8 ovarian cancer; tumor-bearing mice, FIG. 113
  B regulatory cells (Bregs): significant reduction
[5]
  Immature myeloid infiltrate (MDSCs): decreased immature myeloid infiltrate
  Immunosuppressive Tregs: reduced the number of immunosuppressive Tregs
  Tumor associated macrophages: reduced the number of tumor associated macrophages
  Tumor burden: significantly reduced tumor burden
[6]
  Levels in brain and CSF samples: low but detectable levels
Txk
  IC50: 291 nM
NK cells [7]
  Inhibition of trastuzumab-stimulated NK cell degranulation: no inhibitory effect
[8]; hepatocytes
  Unique human metabolite: No unique human metabolite was identified
[8]; mouse, rat, dog, rabbit, monkey, and human hepatocytes
  Metabolites in hepatocytes: two mono-oxidized metabolites and a glutathione conjugate
NK cells [9]
  Inhibition of trastuzumab-stimulated NK cell cytokine release: no inhibitory effect
CYP3A4; in vitro
  CYP catalyzed loss of parent drug: metabolized by CYP3A4
CYP3A4; nonclinical CYP interaction studies
  CYP drug-drug interaction potential: very unlikely to cause clinical drug-drug interactions
Canine B cell lymphoma
  CR by investigator evaluation: 0/21
[10]
  IC50: 1150 nM
BTK [11]
  BTK target occupancy: improved
[12]
  Tumor burden: reduction in tumor burden
